ChEMBL document CHEMBL1201862, “PubChem BioAssay data set” (2004)
The source made the active and inactive calls.

Assays:
[1] = Vero E6 cell cytotoxicity, dose response, cytotoxicity control for non-replicating M. tuberculosis project, secondary assay (AID 492998); format: functional, VeroE6; details: Vero C1008
[2] = cells; format: functional
[3] = THP-1 cell cytotoxicity, dose response, cytotoxicity control for non-replicating M. tuberculosis project (AID 489025); format: functional
[4] = HepG2 cell cytotoxicity, dose response, cytotoxicity control for non-replicating M. tuberculosis project (AID 489018); format: functional; details: Mycobacterium tuberculosis
[5] = system: INS1; experiment: beta cell apoptosis inhibitors, cytokine rescue, dose response, luminescence, retest (AID 449756); format: functional, cell-based; details: Rattus norvegicus;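 note: cell death triggered by IL-1 beta plus TNF-alpha plus IFN-gamma mixture; protective hits raise ATP signal compared with cytokine alone wells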
[6] = target: DNA dC->dU-editing enzyme APOBEC-3G (Homo sapiens, UniProt Q9HC16); experiment: Dose Response confirmation of small molecule APOBEC3G DNA Deaminase Inhibitors via a fluorescence-based single-stranded DNA deaminase assay. [Related pubchem assays (depositor defined):AID493012, AID493028]; format: functional
[7] = target: T1, Rac GTPase-activating protein 1 (Homo sapiens, UniProt Q9H0H5); experiment: MgcRacGAP GTPase-activating activity inhibitors, confirmation, biochemical, ADP Hunter fluorescence, primary and confirmatory (AID 624330); format: functional
T1 sequence (Q9H0H5 whole entry): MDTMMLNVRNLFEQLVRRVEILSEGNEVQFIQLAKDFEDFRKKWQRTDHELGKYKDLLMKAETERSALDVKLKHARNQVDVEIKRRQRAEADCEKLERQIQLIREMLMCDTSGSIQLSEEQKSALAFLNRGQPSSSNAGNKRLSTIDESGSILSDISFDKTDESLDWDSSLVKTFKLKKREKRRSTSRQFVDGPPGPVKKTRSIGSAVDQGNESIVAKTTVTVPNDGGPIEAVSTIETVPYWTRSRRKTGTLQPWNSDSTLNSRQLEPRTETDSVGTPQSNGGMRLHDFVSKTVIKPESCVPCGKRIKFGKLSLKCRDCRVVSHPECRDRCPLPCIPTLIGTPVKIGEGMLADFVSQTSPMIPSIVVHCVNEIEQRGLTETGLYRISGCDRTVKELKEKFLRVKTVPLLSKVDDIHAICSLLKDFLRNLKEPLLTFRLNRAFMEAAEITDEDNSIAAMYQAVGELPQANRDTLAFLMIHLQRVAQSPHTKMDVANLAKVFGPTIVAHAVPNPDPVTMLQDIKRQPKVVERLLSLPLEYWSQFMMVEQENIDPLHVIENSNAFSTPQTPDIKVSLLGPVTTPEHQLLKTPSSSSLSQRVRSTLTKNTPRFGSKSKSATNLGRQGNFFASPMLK

[8] = inhibitors of SNCA 5'UTR-driven translation, confirmation, luminescence, H4 neuroglioblastoma cells, dose confirmation (AID 2454); format: functional, cell-based;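 note: H4 neuroglioblastoma cells carrying an alpha-synuclein 5'UTR luciferase reporter; potency for inhibition of the luciferase signal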
[9] = growth suppression of PTEN-null colon cells, dose response, cell-based, HCT116 PTEN knockout (AID 1047); format: functional;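 note: HCT116 colon tumor cells with PTEN knocked out; cells exposed to compound for 60 hours before readout; potency for loss of cell viability measured by luminescence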
[10] = cells; format: functional, cell-based
[11] = Luminescence Cell-Based Dose Response HTS to Identify Inhibitors of 5'UTR Stem-Loop Driven Prion Protein mRNA Translation in H4 Neuroglioblastoma Cells. [Related pubchem assays: 1827 (Project Summary), 1813 (Primary HTS)]; format: functional
[12] = target: Paired box protein Pax-8 (Homo sapiens, UniProt Q06710); experiment: inhibitors of PAX8-driven TPO luciferase reporter, dose response, RMG-I cells, cherry-pick (AID 687027); format: functional, cell-based;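 note: luciferase reporter driven by Pax8 target thyroperoxidase promoter measured by SteadyGlo luminescence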
[13] = HepG2 cell cytotoxicity, dose response, cytotoxicity control for Shn3 inhibitor project, CellTiter-Glo, cherry-picked (AID 624134); format: functional, cell-based
[14] = inhibitors of firefly luciferase expression or activity, dose response, H4 neuroglioma cells, luminescence (AID 1990); format: functional, cell-based
[15] = luciferase reporter signal reduction – luminescence, H4-C neuroglioblastoma cells, dose response (AID 2458); format: functional, cell-based;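 note: H4 neuroglioblastoma cells stably carrying a luciferase reporter gene fusion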
[16] = Shn3 3'UTR reporter inhibitors, dose response, cell-based, Clone20 osteoblasts, firefly luciferase, cherry-picked (AID 624132); format: functional;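 note: firefly luciferase luminescence from reporter carrying the Shn3 3'UTR in osteoblasts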
[17] = control 3'UTR Renilla luciferase suppression, dose response, counter-screen for Shn3 inhibitor project, cell-based, Clone20-Shn3RL, cherry-picked (AID 624133); format: functional
[18] = growth suppression of beta-catenin-knockout colon cells, dose response, cell-based, HCT116, human colon tumor (AID 1045); format: functional;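 note: HCT116 colon tumor cells with beta catenin knocked out; cells exposed to compound for 60 hours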
[19] = inhibitors of SNCA 5'UTR-driven reporter translation, confirmation, H4 neuroglioma cells, luminescence (AID 1988); format: functional, cell-based
[20] = THP-1 cell cytotoxicity, dose response, cytotoxicity control for Vif-APOBEC3G degradation inhibitor project, THP-1 cells (AID 1117359); format: functional; details: Human immunodeficiency virus 1, THP-1
[21] = C. albicans growth with fluconazole, confirmation, fluorescence, retest (AID 2467); format: functional, cell-based
[22] = ADAM10 protease inhibitors, dose response, selectivity assay for ADAM17 exosite inhibitor project, biochemical, FRET peptide substrate, recombinant human ADAM10 (AID 743259);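 note: ADAM10 enzyme cleaving a FRET peptide substrate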
[23] = NIH-3T3 fibroblast cytotoxicity, dose response, cytotoxicity control, cell-based, fluorescence, Alamar Blue, secondary assay (AID 2327); format: functional;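 note: NIH-3T3 mouse fibroblasts cultured with fluconazole at 8 µg/mL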
[24] = target: Disintegrin and metalloproteinase domain-containing protein 17 (Homo sapiens, UniProt P78536); experiment: exosite inhibitors of ADAM17, dose response, biochemical (AID 743260)
[25] = Luminescence Cell-Based Dose Response to Identify Activators of 5'UTR Stem-Loop Driven Prion Protein mRNA Translation in H4-C Neuroglioblastoma Cells. [Related pubchem assays: 1829 (Project Summary), 1814 (Primary HTS)]; format: functional
[26] = Luminescence Cell-Based Dose Response HTS to Identify Activators of Luciferase Translation or Activity in H4 […] Cells. [Related pubchem assays: 1829 (Project Summary), 1814 (Primary HTS)]; format: functional
[27] = Luminescence Cell-Based Dose Confirmation to Identify Activators of 5'UTR Stem-Loop Driven Alpha-Synuclein mRNA Translation in H4 Neuroglioblastoma Cells. [Related pubchem assays: 1829 (Project Summary), 1814 (Primary HTS)]; format: functional
[28] = system: H4; experiment: Luminescence Cell-Based Dose Response HTS to Identify Activators of 5'UTR Stem-Loop Driven Prion Protein mRNA Translation in H4 Neuroglioblastoma Cells. [Related pubchem assays: 1829 (Project Summary), 1814 (Primary HTS)]; format: functional; details: Homo sapiens
[29] = microbe, parasite or virus in culture; format: functional; details: Mycobacterium tuberculosis
[30] = Luminescence Cell-Based Dose Confirmation HTS to Identify Activators of 5'UTR Stem-Loop Driven Alpha-Synuclein mRNA Translation in H4 Neuroglioblastoma Cells. [Related pubchem assays: 1829 (Project Summary), 1814 (Primary HTS)]; format: functional
[31] = target: Heat shock protein HSP 90-alpha (Homo sapiens, UniProt P07900); format: functional, organism-based
[32] = Luminescence Cell-Based Dose Response to Identify Activators of Luciferase Translation or Activity in H4-C Neuroglioblastoma Cells. [Related pubchem assays: 1829 (Project Summary), 1814 (Primary HTS)]; format: functional
[33] = cytotoxicity in HEK-293T cells, dose response, cytotoxicity control for TCR NF-kB inhibitor project, luminescence, T-cell screen hits (AID 489026); format: functional, cell-based;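 note: cells exposed to compound about 14 hours before the viability readout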

Paired box protein Pax-8, sequence (Q06710 whole entry): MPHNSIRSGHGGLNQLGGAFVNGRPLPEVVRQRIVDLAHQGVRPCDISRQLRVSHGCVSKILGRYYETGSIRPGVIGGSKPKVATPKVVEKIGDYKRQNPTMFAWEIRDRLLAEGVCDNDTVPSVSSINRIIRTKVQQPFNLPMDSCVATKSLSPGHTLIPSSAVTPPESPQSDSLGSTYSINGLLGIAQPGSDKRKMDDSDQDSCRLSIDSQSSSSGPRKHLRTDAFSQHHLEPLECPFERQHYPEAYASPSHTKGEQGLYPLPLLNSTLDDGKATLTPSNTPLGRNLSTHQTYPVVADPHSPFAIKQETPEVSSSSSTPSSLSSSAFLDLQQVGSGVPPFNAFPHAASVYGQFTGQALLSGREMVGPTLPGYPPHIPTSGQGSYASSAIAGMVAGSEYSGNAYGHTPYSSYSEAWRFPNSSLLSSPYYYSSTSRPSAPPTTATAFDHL
Disintegrin and metalloproteinase domain-containing protein 17, sequence (P78536 whole entry, the tested form may be a part): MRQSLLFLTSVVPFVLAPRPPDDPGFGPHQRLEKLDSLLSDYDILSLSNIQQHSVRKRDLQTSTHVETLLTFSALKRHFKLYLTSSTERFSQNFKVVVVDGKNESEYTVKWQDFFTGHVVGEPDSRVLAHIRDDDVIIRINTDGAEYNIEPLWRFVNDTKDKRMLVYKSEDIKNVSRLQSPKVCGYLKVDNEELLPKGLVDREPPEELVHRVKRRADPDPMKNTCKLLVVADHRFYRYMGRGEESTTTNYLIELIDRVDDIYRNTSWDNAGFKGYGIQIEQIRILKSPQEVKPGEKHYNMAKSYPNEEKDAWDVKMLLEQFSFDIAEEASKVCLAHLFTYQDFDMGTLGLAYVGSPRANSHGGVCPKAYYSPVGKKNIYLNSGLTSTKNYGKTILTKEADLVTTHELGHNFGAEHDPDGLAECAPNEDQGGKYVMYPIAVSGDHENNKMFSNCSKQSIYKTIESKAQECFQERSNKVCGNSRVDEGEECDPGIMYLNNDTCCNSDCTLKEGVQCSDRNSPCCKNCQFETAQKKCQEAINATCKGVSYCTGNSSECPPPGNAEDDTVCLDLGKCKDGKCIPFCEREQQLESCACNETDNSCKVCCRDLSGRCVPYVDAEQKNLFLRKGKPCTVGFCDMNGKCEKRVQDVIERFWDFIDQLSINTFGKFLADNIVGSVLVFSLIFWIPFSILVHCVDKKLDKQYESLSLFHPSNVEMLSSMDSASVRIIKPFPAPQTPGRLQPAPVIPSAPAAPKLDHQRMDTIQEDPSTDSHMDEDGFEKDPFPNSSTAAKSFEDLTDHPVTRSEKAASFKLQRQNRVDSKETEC
DNA dC->dU-editing enzyme APOBEC-3G, sequence (Q9HC16 whole entry): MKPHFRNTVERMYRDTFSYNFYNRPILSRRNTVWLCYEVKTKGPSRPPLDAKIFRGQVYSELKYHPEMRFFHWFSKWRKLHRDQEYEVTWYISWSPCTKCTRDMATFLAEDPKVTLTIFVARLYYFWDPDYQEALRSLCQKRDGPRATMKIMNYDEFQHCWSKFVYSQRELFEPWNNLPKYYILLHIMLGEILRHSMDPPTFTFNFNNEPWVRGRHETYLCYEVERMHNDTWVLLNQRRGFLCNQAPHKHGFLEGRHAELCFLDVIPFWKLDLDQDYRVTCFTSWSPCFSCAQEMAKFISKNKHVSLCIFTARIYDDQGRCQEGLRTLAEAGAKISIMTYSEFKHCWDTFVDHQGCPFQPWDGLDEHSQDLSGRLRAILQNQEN

For `CCCCCn1c(=O)c(C(=O)Nc2nc3ccccc3[nH]2)c(O)c2ccccc21`, the CC50 [1] was 6.21 µM (active), the IC50 [2] was 7.7 µM (active) and the CC50 [3] was 6.69 µM (active). For the same compound, the CC50 [4] was > 20 µM (active) and the AC50 [5] was 6.54 µM (active).

With `CC(C)Cn1c(-c2ccc(Br)o2)n[nH]c1=S` the IC50 [6] was 2.83 µM (active) and the IC50 [7] was 105 µM (active).

With `Cc1cc(C2=NN=C(NC3CC3)SC2)c(C)n1-c1ccccc1F` the EC50 [8] was 0.004 µM (active), the EC50 [9] was 17.1 µM (active) and the EC50 [10] was 0.016 µM (active). For the same compound, the EC50 [11] was < 0.1 µM (active), the AC50 [12] was < 0.26 µM (active) and the AC50 [13] was 28 µM (active). The EC50 [14] was < 0.1 µM (active), the EC50 [15] was 0.005 µM (active) and the AC50 [16] was < 0.26 µM (active). The AC50 [17] was 6.07 µM (active), the EC50 [18] was 16.7 µM (active) and the EC50 [19] was < 0.1 µM (active).

In the case of `CCCCN(CCCC)CCCN1CC(=O)N2[C@@H](Cc3c([nH]c4ccccc34)C2(C)C)C1=O`, the CC50 [20] is reported as > 40 µM (active).

For `O=[N+]([O-])CC(c1ccccc1)P(=O)(c1ccccc1)c1ccccc1` (configuration not stated), the EC50 [21] was 5.58 µM (active), the IC50 [22] was > 69.5 µM (inactive) and the EC50 [23] was > 160 µM (inactive). For the same compound, the IC50 [24] was 10.9 µM (inactive).

With `Cc1cc(-c2nnc(S)n2/N=C/C(Br)=C/c2ccccc2)[nH]n1` the EC50 [9] was 1.96 µM (active), the EC50 [25] was > 12 µM (not active) and the EC50 [26] was < 0.1 µM (active). For the same compound, the EC50 [27] was 0.943 µM (active), the EC50 [28] was > 120 µM (not active) and the AC50 [12] was 2.78 µM (active). The CC50 [1] was 9.01 µM (active), the IC50 [2] was 4.68 µM (active) and the CC50 [3] was 11.1 µM (active). For the same compound, the CC50 [29] was 29.3 µM (active), the CC50 [4] was > 20 µM (active) and the AC50 [5] was > 60 µM (inactive). The EC50 [30] was 77.7 µM (active), the AC50 [31] was 10.4 µM (active) and the EC50 [18] was 1.52 µM (active). The EC50 [32] was 8.65 µM (active).

In the case of `CCOc1ccc2[nH]c(C(=O)N/N=C/c3ccc(OC)cc3)cc2c1`, the EC50 [8] is reported as 3.25 µM (active), the EC50 [10] is reported as 1.4 µM (active) and the EC50 [11] is reported as 0.273 µM (active). For the same compound, the EC50 [14] was 7.08 µM (active), the EC50 [15] was 1.12 µM (active) and the EC50 [19] was < 0.1 µM (active).

With `CN(C)c1ccc2c(c1)OC(N)=C(C#N)C2c1cccc(F)c1` (configuration not stated) the EC50 [8] was 0.338 µM (active), the IC50 [33] was 40.4 µM (inactive) and the EC50 [10] was 0.233 µM (active). For the same compound, the EC50 [11] was < 0.1 µM (active), the EC50 [14] was < 0.1 µM (active) and the EC50 [15] was 0.228 µM (active). The EC50 [19] was < 0.1 µM (active).

For `Cc1cc(C)c([N+](=O)[O-])cc1-c1ccc(/C=N/c2c(-c3ccco3)nc3ccccn23)o1`, the CC50 [20] was 31.6 µM (active), the EC50 [26] was 12 µM (active) and the EC50 [28] was 14.8 µM (active). For the same compound, the EC50 [30] was 8.26 µM (active).
